Tests used:
Test in all cases: relative viability (nuclei count vs DMSO), 5 days (fraction); higher = more cells survive
[1] = compound: Cn1nnc2c(C(N)=O)ncn2c1=O [Temozolomide] + CC(=O)c1c(C)c2cnc(Nc3ccc(N4CCNCC4)cn3)nc2n(C2CCCC2)c1=O [Palbociclib] (partner 0.5 µM)
Summary of the method: (§1)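 Dosing by pin tool came one day after lung cancer cell lines were seeded in 1536-well plates, using either one drug or a fixed anchor-drug dose plus five library-drug doses (not always all listed) in √10 steps. After 5 days, nuclei were counted on 4× images. Relative viability is treated-well nuclei count divided by vehicle-well nuclei count, and values are medians of duplicate plates.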

[2] = compound: Cn1nnc2c(C(N)=O)ncn2c1=O [Temozolomide] + CC1(C)CCC(c2ccc(Cl)cc2)=C(CN2CCN(c3ccc(C(=O)NS(=O)(=O)c4ccc(N[C@H](CCN5CCOCC5)CSc5ccccc5)c(S(=O)(=O)C(F)(F)F)c4)cc3)CC2)C1 [Navitoclax] (partner 0.5 µM)
Summary of the method: as §1

AZD5582 + Tozasertib = compound: C[C@@H](C(=O)N[C@@H](C1CCCCC1)C(=O)N2CCC[C@H]2C(=O)N[C@@H]3[C@@H](CC4=CC=CC=C34)OCC#CC#CCO[C@@H]5CC6=CC=CC=C6[C@@H]5NC(=O)[C@@H]7CCCN7C(=O)[C@H](C8CCCCC8)NC(=O)[C@H](C)NC)NC [AZD5582] + Cc1cc(Nc2cc(N3CCN(C)CC3)nc(Sc3ccc(NC(=O)C4CC4)cc3)n2)n[nH]1 [Tozasertib] (partner 0.1 µM)
Summary of the method: as §1

[3] = compound: Cn1nnc2c(C(N)=O)ncn2c1=O [Temozolomide] + C[C@]1(O)C[C@@H](c2nc(-c3ccc4ccc(-c5ccccc5)nc4c3)c3c(N)nccn32)C1 [Linsitinib] (partner 1 µM)
Summary of the method: as §1

| Cell Line | relative viability ([1]; first compound 0.2 µM) | relative viability ([1]; first compound 0.6325 µM) | relative viability ([1]; first compound 2 µM) | relative viability ([1]; first compound 6.325 µM) | relative viability ([1]; first compound 20 µM) | relative viability ([2]; first compound 0.2 µM) | relative viability ([2]; first compound 0.6325 µM) | relative viability ([2]; first compound 2 µM) | relative viability ([2]; first compound 6.325 µM) | relative viability ([2]; first compound 20 µM) | relative viability (AZD5582 + Tozasertib; first compound 0.001581 µM) | relative viability (AZD5582 + Tozasertib; first compound 0.005 µM) | relative viability (AZD5582 + Tozasertib; first compound 0.01581 µM) | relative viability (AZD5582 + Tozasertib; first compound 0.05 µM) | relative viability ([3]; first compound 0.2 µM) | relative viability ([3]; first compound 0.6325 µM) | relative viability ([3]; first compound 2 µM) | relative viability ([3]; first compound 6.325 µM) | relative viability ([3]; first compound 20 µM) |
| --- | --- | --- | --- | --- | --- | --- | --- | --- | --- | --- | --- | --- | --- | --- | --- | --- | --- | --- | --- |
| NCI-H2405 | 0.442 | 0.576 | 0.518 | 0.5 | 0.508 | 0.34 | 0.775 | 0.995 | 0.73 | 0.82 | 0.74 | 0.813 | 0.708 | 0.85 | 0.707 | 0.924 | 1.09 | 0.858 | 0.95 |
| NCI-H727 |  | 0.579 | 0.676 | 0.715 | 0.703 | 0.409 | 0.428 | 0.496 | 0.469 | 0.324 | 0.651 | 0.732 | 0.58 | 0.78 | 0.287 | 0.329 | 0.196 | 0.224 | 0.233 |
| NCI-H2023 | 0.407 | 0.377 | 0.377 | 0.379 | 0.346 | 1.02 | 1 | 1.13 | 0.985 | 0.997 | 0.209 | 0.345 | 0.499 | 0.305 | 0.567 | 0.7 | 0.665 | 0.712 | 0.662 |
| COR-L23 | 0.383 | 0.398 | 0.311 | 0.266 | 0.269 | 1.2 | 0.933 | 1.02 | 0.976 | 0.938 | 0.187 | 0.246 | 0.257 | 0.241 | 1.01 | 1.08 | 0.863 | 0.994 | 0.819 |
| EMC-BAC-2 | 0.563 | 0.534 | 0.542 | 0.511 | 0.514 | 1.07 | 1.24 | 1.16 | 1.2 | 1.2 | 0.271 | 0.269 | 0.288 | 0.187 | 0.719 | 0.85 | 0.766 | 0.799 | 0.749 |
| A-427 | 0.519 | 0.575 | 0.518 | 0.492 | 0.427 | 0.971 | 0.923 | 0.949 | 0.596 | 0.592 | 0.201 | 0.198 | 0.221 | 0.167 | 1.1 | 1.15 | 1.15 | 0.948 | 0.604 |
| NCI-H2009 | 0.274 | 0.217 | 0.238 | 0.224 | 0.225 | 1.2 | 1.22 | 1.12 | 1.17 | 1.25 | 0.715 | 0.774 | 0.761 | 0.788 | 1.2 | 1.22 | 1.3 | 1.2 | 1.22 |
| NCI-H23 | 0.59 | 0.55 | 0.504 | 0.403 | 0.433 | 1.04 | 0.93 | 0.857 | 0.86 | 0.851 | 0.304 | 0.278 | 0.328 | 0.347 | 0.596 | 0.541 | 0.698 | 0.668 | 0.5 |
| NCI-H2085 | 0.487 | 0.487 | 0.457 | 0.454 | 0.449 | 1.2 | 1.24 | 1.24 | 1.18 | 1.06 | 0.716 | 0.708 | 0.798 | 0.606 | 0.865 | 0.919 | 0.788 | 0.994 | 0.84 |
| NCI-H1755 | 0.443 | 0.478 | 0.477 | 0.436 | 0.424 | 1.07 | 0.982 | 1.01 | 0.971 | 0.727 | 0.523 | 0.652 | 0.599 | 0.587 | 1.01 | 0.98 | 1.04 | 1 | 0.801 |
| NCI-H1666 | 0.693 | 0.672 | 0.642 | 0.756 | 0.667 | 0.831 | 0.933 | 0.764 | 0.768 | 0.454 | 0.539 | 0.682 | 0.638 | 0.678 | 0.69 | 0.713 | 0.616 | 0.688 | 0.482 |
| UMC-11 | 0.312 | 0.38 | 0.3 | 0.286 | 0.321 | 0.338 | 0.315 | 0.313 | 0.281 | 0.274 | 0.207 | 0.203 | 0.196 | 0.203 | 1 | 1.06 | 0.942 | 0.91 | 0.584 |
| HCC-78 | 0.474 | 0.475 | 0.458 | 0.473 | 0.487 | 0.48 | 0.738 | 0.953 | 0.836 | 0.793 | 1.42 | 0.515 | 0.428 | 0.529 | 0.387 | 0.618 | 0.668 | 0.67 | 0.529 |
| NCI-H1944 | 0.335 | 0.341 | 0.345 | 0.341 | 0.298 | 0.855 | 1.05 | 1.12 | 1.04 | 0.913 | 0.226 | 0.25 | 0.266 | 0.297 | 0.662 | 1.17 | 1.26 | 1.11 | 0.992 |
| NCI-H1651 | 0.497 | 0.557 | 0.5 | 0.526 | 0.547 | 1.15 | 1.01 | 1.07 | 0.958 | 1 | 0.727 | 0.845 |  | 0.918 | 0.998 | 0.99 | 1.14 | 1.04 | 0.969 |
| NCI-H2347 | 0.442 | 0.473 | 0.388 | 0.408 | 0.474 | 0.818 | 0.825 | 0.441 | 0.73 | 0.732 | 0.561 | 0.523 | 0.5 | 0.553 | 1.08 | 1.11 | 1 | 0.859 | 0.964 |

From the supplement of paper PMC10307832
